According to US4661516A, “Diaminocyclohexane platinum complexes” (Research Corporation, priority 1984, dated 1987):

Legend:
L1210 cells = assay: In vivo anti-tumor activity, L1210, single i.p. injection; design: species or system BDF1 mice; details: single i.p.
Experimental: About 24 hours after inoculation of the cells, the mice were injected intraperitoneally with varying dosages of complexes of the present invention. […] Long term survival signifies that animals were alive 60 days after inoculation with L1210 cells.

[1] = system: Wild type L1210 leukemic cells; assay: In vitro cytotoxicity, wild type L1210 leukemic cells (L1210/0); type: cell-based; details: L1210, 72 hours incubation
Experimental: Four ml of cell suspension (10^5 cells/ml) are added to culture tubes and the appropriate concentration (0.01, 0.1, 1 or 10 μg/ml final concentration) of drug added to the culture tubes. After 72 hours of incubation, the cell concentration of control and experimental cultures are determined with the aid of a Coulter Counter® Model ZBf and the percent inhibition calculated. […]

L1210/0 leukemia cells = assay: In vivo anti-tumor activity, L1210 (L1210/0), multiple i.p. doses; design: species or system BDF1 mice; details: for LTS: survivors/treated 50 days after treatment
Experimental: BDF1 mice were inoculated intraperitoneally with 10^6 L1210 cells. About 24 hours after inoculation of the cells, the mice were injected intraperitoneally with varying dosages of complexes of the present invention. Six mice were used for each dosage level in each experiment with an equal number of control mice inoculated with 10^6 L1210 cells and left untreated with a given complex. The results [%T/C=(survival time of treated animals/survival time of control animals)×100] are set forth below. Long term survival signifies that animals were alive 60 days after inoculation with L1210 cells.
The procedure of Example 16 was repeated except that the treated animals were injected with multiple doses of the complex as indicated below:
The anti-tumor activity of compound number 3 was evaluated against cells sensitive to (L1210/0) and resistant to (L1210/PDD) the standard platinum complex cis-diamminedichloroplatinum(II).
The following complexes were tested in vivo oncolytic activity following 3 i.p. injections (days 1, 5, 9) according to the protocol described in Examples 16 and 17.
BDF1 mice were innoculated intraperitoreally with 10^6 L1210 leukemia cells and treatment was begun on the next day (day 1). Two treatment schedules, i.e. single i.p. injection of the drug and i.p. injections on days 1, 5 and 9 according to the protocol described in Examples 16 and 17 were used.

[2] = system: L1210 leukemia cells (L1210/PDD); assay: In vitro cytotoxicity / cross-resistance, L1210/PDD (L1210/DDP) cells resistant to cisdiamminedichloroplatinum(II); type: cell-based; details: L1210/DDP, Tables VII and VIII; 5760 min
Experimental: Four ml of cell suspension were added to culture tubes and the appropriate concentration (0.01, 0.1, 1 or 10 μg/ml final drug concentration) was added. After 96 hours the cell concentration of control and experimental cultures were calculated with the aid of a Coulter Counter® Model ZBf and the percent inhibition calculated.

[3] = 6.25 mg/kg i.p., days 1, 5, 9, 30 day observation period
[4] = 12.5 mg/kg i.p., days 1, 5, 9, 30 day observation period
[5] = 25 mg/kg i.p., days 1, 5, 9, 30 day observation period

Row | Molecule | % T/C (L1210 cells; 25 mg/kg) | % T/C (L1210 cells; 50 mg/kg) | ID50 [1] | % T/C (L1210 cells; 12.5 mg/kg) | other results
1 | NC1CCCCC1N.O=C([O-])C1CC(O)CN1.O=C([O-])C1CC(O)CN1.[Pt+2] (mixture of isomers) [Compound 17, cis-bis-L-hyroxyprolinato(DACH)Pt(II).1H2 O] | 160% | 170% | 2.7 µg/mL |  | % T/C (L1210 cells; 100 mg/kg): Toxic
2 | NC1CCCCC1N.O.O=C1CC(C(=O)[O-])C(C(=O)[O-])O1.[Pt+2] (racemic) [Compound 12, DL-isocitratolactone(DACH)Pt(II).1H2 O] | 133% | 145% | 1.0 µg/mL |  | % T/C (L1210 cells; 100 mg/kg): Toxic; % T/C (L1210/0 leukemia cells; 25 mg/kg, days 1,5,9): 219%; % T/C (L1210/0 leukemia cells; 50 mg/kg, days 1,5,9): 165%
3 | NC1CCCCC1N.O.O=C([O-])C1CCCCN1.O=C([O-])C1CCCCN1.[Pt+2] (racemic) [Compound 18, cis-bis-DL-pipecolinato(DACH)Pt(II).1H2 O] | 180% | Toxic | 0.44 µg/mL | 145% | 
4 | NC1CCCCC1N.O=C([O-])[C@@H]1CCC[C@H]1C(=O)[O-].[Pt+2] (racemic) [Compound 27, trans-DL-1,2-cyclopentanedicarboxylato(DACH)Pt(II)] | 159% | 183% | 0.4 µg/mL | 158% | 
5 | NC1CCCCC1N.O=C1OC(C(O)CO)C([O-])=C1O.O=C1OC(C(O)CO)C([O-])=C1O.[Pt+2] (stereo not drawn) [Compound 6, cis-bis-ascorbato(cis-DACH)Pt(II).5H2 O] |  | Toxic |  |  | % T/C (L1210 cells; 100 mg/kg): Toxic; ID50 ([1]; 4320 min): 4.0 µg/mL
6 | NC1CCCCC1N.O.O.O=C([O-])C1=CC(O)C(O)C(O)C1.O=C([O-])C1=CC(O)C(O)C(O)C1.[Pt+2] (stereo not drawn) [Compound 10, cis-bis-shikimato(DACH)Pt(II).2H2 O] |  | 140% |  |  | % T/C (L1210 cells; 100 mg/kg): 217%; Long Term Survivors (L1210 cells; 100 mg/kg, alive 60 days after inoculation): 2/6; % T/C (L1210/0 leukemia cells; 12.5 mg/kg, days 1,5,9): 139%; % T/C (L1210/0 leukemia cells; 25 mg/kg, days 1,5,9): 149%; % T/C (L1210/0 leukemia cells; 50 mg/kg, days 1,5,9): 222%; Long Term Survivors (L1210/0 leukemia cells; 50 mg/kg, days 1,5,9): 1/6
7 | NC1CCCCC1N.O.O.O=S(=O)([O-])CCO.O=S(=O)([O-])CCO.[Pt+2] (stereo not drawn) [Compound 13, cis-bis-isethionato(DACH)Pt(II).2H2 O] |  | Toxic | 0.43 µg/mL |  | % T/C (L1210 cells; 5 mg/kg): 153%; % T/C (L1210 cells; 10 mg/kg): 180%; % T/C (L1210 cells; 20 mg/kg): 140%; animals died of apparent drug toxicity (L1210 cells; 20 mg/kg): 2/6; Long Term Survivors (L1210 cells; 20 mg/kg, alive 60 days after inoculation): 1/6
8 | NC1CCCCC1N.NCCOS(=O)(=O)[O-].NCCOS(=O)(=O)[O-].[Pt+2] (stereo not drawn) [Compound 14, cis-bis-2-aminoethylsulfato(DACH)Pt(II)] |  |  | 4.3 µg/mL |  | ID50 L1210/DDP [2]: 3.7 µg/mL
9 | NC1CCCCC1N.O.O=C([O-])C1CCN1.O=C([O-])C1CCN1.[Pt+2] [Compound 15, cis-bis-L-azetidinecarboxylato(DACH)Pt(II).1H2 O] | 148% | 161% | 3.6 µg/mL | 157% | % T/C (L1210 cells; 100 mg/kg): Toxic
10 | NC1CCCCC1N.O.O=C([O-])C1(C(=O)[O-])CC1.[Pt+2] [Compound 20, cyclopropane-1,1-dicarboxylato(DACH)Pt(II).H2 O] |  |  | 0.41 µg/mL |  | 
11 | NC1CCCCC1N.O.O=C([O-])C1CCCCC1.O=C([O-])C1CCCCC1.[Pt+2] [Compound 22, Cis-bis-cyclohexanecarboxylato(DACH)Pt(II).1H2 O] |  | 140% | 0.5 µg/mL |  | % T/C (L1210 cells; 100 mg/kg): 170%
12 | NC1CCCCC1N.O.O=C([O-])CC1(CC(=O)[O-])CCCCC1.[Pt+2] [Compound 23, 1,1-cyclohexanediacetato(DACH)Pt(II).1H2 O] |  |  | 0.6 µg/mL |  | 
13 | NC1CCCCC1N.O.O=C([O-])C1CCCC1.O=C([O-])C1CCCC1.[Pt+2] (stereo not drawn) [Compound 25, Cis-bis-cyclopentanecarboxylato(DACH)Pt(II).1H2 O] | 178% | 163% | 0.3 µg/mL | 161% | % T/C (L1210/0 leukemia cells; [3]): 202%; % T/C (L1210/0 leukemia cells; [4]): 246%; % T/C (L1210/0 leukemia cells; [5]): 253%
14 | NC1CCCCC1N.O.O=C([O-])C1CC1.O=C([O-])C1CC1.[Pt+2] (stereo not drawn) [Compound 29, Cis-bis-cyclopropanecarboxylato(DACH)Pt(II).1H2 O] | 176% | 199% | 0.3 µg/mL | 252% | LTS (L1210 cells; 12.5 mg/kg): 1/6; Long Term Survivors (LTS) (L1210 cells; 50 mg/kg, alive 60 days after inoculation): 1/6
15 | NC1CCCCC1N.O.O=C([O-])C1CCC1.O=C([O-])C1CCC1.[Pt+2] (stereo not drawn) [Compound 30, Cis-bis-cyclobutanecarboxylato(DACH)Pt.1H2 O] | 154% | 145% | 0.4 µg/mL | 149% | 
16 | CCS(=O)(=O)[O-].CCS(=O)(=O)[O-].NC1CCCCC1N.O.[Pt+2] (stereo not drawn) [Compound 31, Cis-bis-ethanesulfonato(DACH)Pt(II).H2 O] | 134% | 153% | 3.1 µg/mL | 109% | % T/C (L1210/0 leukemia cells; 50 mg/kg i.p., days 1, 5, 9, 30 day observation period): 198%; LTS (L1210/0 leukemia cells; 50 mg/kg, days 1, 5, 9): 1/6; % T/C (L1210/0 leukemia cells; 100 mg/kg i.p., days 1, 5, 9, 30 day observation period): 295%; LTS (L1210/0 leukemia cells; 100 mg/kg, days 1, 5, 9): 2/6
17 | NC1CCCCC1N.NCC(=O)[O-].NCC(=O)[O-].O.[Pt+2] (stereo not drawn) [Compound 32, Cis-bis-glycinato(DACH)Pt(II).1H2 O] | 131% | 158% | 2.5 µg/mL | 128% | 
18 | NC1CCCCC1N.O=S(=O)([O-])CCCl.O=S(=O)([O-])CCCl.[Pt+2] (stereo not drawn) [Compound 33, Cis-bis-chloroethanesulfonato(DACH)Pt(II).1H 2 O] | 144% | Toxic | 0.3 µg/mL | 188% | 
19 | NC1CCCCC1N.O=C([O-])CN(CCO)CCO.O=C([O-])CN(CCO)CCO.[Pt+2] [Compound 34, Cis-bis-bicinato(DACH)Pt(II)] | 151% | 160% | 1.2 µg/mL | 165% | 
20 | NC1CCCCC1N.O.O.O=C([O-])CNCC(=O)[O-].[Pt+2] [Compound 35, Iminodiacetato(trans-R,R--DACH)Pt(II).2H2 O] |  |  | 3.0 µg/mL |  | Long Term Survivors (L1210/0 leukemia cells; Tables X and XI, days 1, 5 and 9, at maximal effective dose, alive 60 days after tumor inoculation): 2/6; Maximal Effective Dose (L1210/0 leukemia cells; Tables X and XI, i.p. on days 1, 5 and 9): 25 mg/kg; % T/C (L1210/0 leukemia cells; Tables X and XI, i.p. on days 1, 5 and 9, at maximal effective dose): 437%
21 | NC1CCCCC1N.O.O.O=C([O-])C1CCCN1.O=C([O-])C1CCCN1.[Pt+2] [Compound 36, Cis-bis-L-prolinato(trans-R,R--DACH)Pt(II).2H2 O] | 212% | 149% | 0.8 µg/mL | 179% | Long Term Survivors (LTS) (L1210 cells; 25 mg/kg): 1/6
22 | NC1CCCCC1N.O=C([O-])[C@@H]1C[C@H]1C(=O)[O-].[Pt+2] [Compound 40, trans-1,2-cyclopropanedicarboxylato(DACH)Pt(II)] |  |  | 0.4 µg/mL |  | 
23 | NC1CCCCC1N.O=C([O-])[C@@H]1CC[C@H]1C(=O)[O-].[Pt+2] [Compound 41, trans-1,2-cyclobutanedicarboxylato(DACH)Pt(II)] |  |  | 0.5 µg/mL |  | 
24 | Cis-bis-cyclohexenecarboxylato(DACH)Pt(II).1H2 O [Compound 24] | 132% | 165% | 1.0 µg/mL |  | % T/C (L1210 cells; 100 mg/kg): 105%
25 | Cis-bis-cyclopentenecarboxylato(DACH)Pt(II).2H2 O [Compound 26] | 158% | 157% | 1.3 µg/mL | 185% | % T/C (L1210/0 leukemia cells; [3]): 189%; % T/C (L1210/0 leukemia cells; [4]): 356%; LTS (L1210/0 leukemia cells; 12.5 mg/kg, days 1, 5, 9): 1/6; % T/C (L1210/0 leukemia cells; [5]): 300%; LTS (L1210/0 leukemia cells; 25 mg/kg, days 1, 5, 9): 1/6
